# Values quoted from earlier work in patent US20050281896A1, “Nutritional composition for increasing creatine uptake in skeletal muscle” (priority 2004, published 2005).
# What was measured:
# [1] = in vivo
# [2] = molecular target: angiotensin converting enzyme (ACE) (Homo sapiens, UniProt P12821)
# Sequence of angiotensin converting enzyme (ACE) (P12821 30-1306, species assumed): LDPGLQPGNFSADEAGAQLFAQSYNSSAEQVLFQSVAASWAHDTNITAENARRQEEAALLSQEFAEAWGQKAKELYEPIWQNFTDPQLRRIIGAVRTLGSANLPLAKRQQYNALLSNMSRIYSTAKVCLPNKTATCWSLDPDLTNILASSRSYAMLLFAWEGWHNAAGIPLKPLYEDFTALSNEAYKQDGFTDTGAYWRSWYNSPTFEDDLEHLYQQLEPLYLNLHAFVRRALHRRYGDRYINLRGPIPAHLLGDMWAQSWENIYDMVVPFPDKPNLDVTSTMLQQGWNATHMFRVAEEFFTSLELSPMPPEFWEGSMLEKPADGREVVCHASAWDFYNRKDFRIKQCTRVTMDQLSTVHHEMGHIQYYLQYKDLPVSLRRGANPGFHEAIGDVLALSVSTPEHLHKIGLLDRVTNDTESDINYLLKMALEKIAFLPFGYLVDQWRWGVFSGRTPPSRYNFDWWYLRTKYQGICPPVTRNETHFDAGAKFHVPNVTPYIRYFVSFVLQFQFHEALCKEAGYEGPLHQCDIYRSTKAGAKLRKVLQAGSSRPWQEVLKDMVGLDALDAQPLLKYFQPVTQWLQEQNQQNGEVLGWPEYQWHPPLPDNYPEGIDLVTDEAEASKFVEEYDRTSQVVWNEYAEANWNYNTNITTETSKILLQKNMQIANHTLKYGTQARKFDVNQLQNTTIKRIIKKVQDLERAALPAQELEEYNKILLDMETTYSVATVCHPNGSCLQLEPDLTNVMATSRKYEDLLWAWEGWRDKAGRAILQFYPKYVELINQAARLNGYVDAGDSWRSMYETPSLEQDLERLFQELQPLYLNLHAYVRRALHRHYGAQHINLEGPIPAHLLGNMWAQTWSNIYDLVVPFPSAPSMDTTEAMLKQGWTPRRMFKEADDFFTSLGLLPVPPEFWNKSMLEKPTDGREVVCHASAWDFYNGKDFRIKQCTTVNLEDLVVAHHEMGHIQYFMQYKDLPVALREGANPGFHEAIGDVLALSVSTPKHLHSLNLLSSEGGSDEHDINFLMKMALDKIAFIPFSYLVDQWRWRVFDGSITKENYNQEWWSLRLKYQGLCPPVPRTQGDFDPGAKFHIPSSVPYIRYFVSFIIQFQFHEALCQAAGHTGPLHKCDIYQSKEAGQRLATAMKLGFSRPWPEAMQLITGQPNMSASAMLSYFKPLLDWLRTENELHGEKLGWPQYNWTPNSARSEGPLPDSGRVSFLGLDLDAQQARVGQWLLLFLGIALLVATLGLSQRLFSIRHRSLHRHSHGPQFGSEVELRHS
effect on angiotensin converting enzyme (ACE) [2],SMILES,increase of the metabolic clearance rate of glucose (diabetics) [%],body's utilization of blood sugar (type II diabetics),effect on blood pressure [1]
,"O=C(O)CCCC[C@@H]1CCSS1 (stereo in doubt) [alpha lipoic acid, 1,2-dithiolane-3-pentanoic acid]",50,significantly increase,
inhibition,"O=C(/C=C/c1ccc(O)c(O)c1)c1ccc(O)cc1O [butein, 3,4,2′,4′-tetrahydroxychalcone]",,,hypotensive effects
